Some test systems named below: 786-0 renal; EKVX NSCLC; HCT-15 colon; MDA-MB-231 breast; NCI-H522 lung; OVCAR-8 ovarian; SK-MEL-5 melanoma; UACC-257 melanoma; RXF 393 renal; U251 CNS; SK-OV-3 ovarian.
Test in all cases: NCI tumour cell line growth inhibition, 48 h

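Results reflect a 48-hour exposure of cells in 96-well plates to compound at five concentrations. GI50 is the concentration that inhibits growth by half. TGI: concentration producing complete growth inhibition.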 Bounds are passed on as bounds.

For the compound `N#Cc1c(N2CCC(O)C2)c2ccccc2n2c1nc1ccccc12` (stereo unspecified), the TGI was 50.6 µM in the assay on 786-0 renal; more than 100 µM in the assay with EKVX NSCLC; more than 100 µM in the assay with HCT-15 colon; 60.1 µM with MDA-MB-231 breast; more than 100 µM in the assay with NCI-H522 lung; more than 100 µM in the assay on OVCAR-8 ovarian. The TGI in the assay on SK-MEL-5 melanoma and in the assay with UACC-257 melanoma was more than 100 µM throughout.
`Nc1nc2ncc(CNc3ccc(C(=O)NC(CCC(=O)O)C(=O)O)cc3)nc2c(=O)[nH]1` (stereo unspecified): the TGI in the assay on 786-0 renal, in the assay on EKVX NSCLC, in the assay on HCT-15 colon, in the assay on NCI-H522 lung, in the assay on OVCAR-8 ovarian and in the assay on RXF 393 renal was more than 100 µM each time. In addition, the TGI in the assay on SK-MEL-5 melanoma, in the assay on U251 CNS and with UACC-257 melanoma was more than 100 µM in each case.
As to `O=C1CSC(c2ccccc2[N+](=O)[O-])N1c1ccc(-c2ccc(-n3c(-c4ccccc4)nc4ccccc4c3=O)cc2)cc1` (stereo unspecified), the TGI in the assay with 786-0 renal, with EKVX NSCLC, in the assay with HCT-15 colon, in the assay on MDA-MB-231 breast, in the assay on NCI-H522 lung and in the assay on OVCAR-8 ovarian was more than 100 µM each time. The TGI with SK-MEL-5 melanoma, in the assay with SK-OV-3 ovarian, with U251 CNS and with UACC-257 melanoma was more than 100 µM throughout.
As for `COc1ccc(-c2cc(=O)c3cc(OC)ccc3[nH]2)cc1`, the TGI with 786-0 renal, in the assay on EKVX NSCLC, with NCI-H522 lung, in the assay on OVCAR-8 ovarian, with RXF 393 renal and in the assay on SK-MEL-5 melanoma was more than 100 µM in each case. Moreover, the TGI with SK-OV-3 ovarian and in the assay on UACC-257 melanoma was more than 100 µM each time.
In the case of `COc1ccccc1-c1cc(=O)c2cc3c(cc2[nH]1)OCO3`, the TGI is more than 100 µM in the assay on 786-0 renal; more than 100 µM in the assay with EKVX NSCLC; more than 100 µM in the assay with HCT-15 colon; more than 100 µM with OVCAR-8 ovarian; 56.2 µM in the assay with RXF 393 renal; more than 100 µM in the assay with SK-MEL-5 melanoma. Also, the TGI in the assay on U251 CNS and in the assay with UACC-257 melanoma was more than 100 µM throughout. For the same compound, the GI50 in the assay with RXF 393 renal is 15.1 µM.
Turning to `COC1C(O)C(n2ncc3c(SC)nc(SC)nc32)OC1C(O)CO` (stereo unspecified), the TGI in the assay on EKVX NSCLC, in the assay on HCT-15 colon, in the assay on NCI-H522 lung, with OVCAR-8 ovarian, in the assay on RXF 393 renal and with SK-MEL-5 melanoma was more than 100 µM throughout. In addition, the TGI in the assay on SK-OV-3 ovarian is more than 100 µM; with U251 CNS, more than 100 µM; in the assay on UACC-257 melanoma it was more than 55.8 µM.
In the case of `COC1CN(C)C(=Nc2cccc3ccccc23)S1` (stereo unspecified), the TGI in the assay with 786-0 renal, with HCT-15 colon, in the assay with MDA-MB-231 breast, in the assay with NCI-H522 lung, with OVCAR-8 ovarian and in the assay with SK-MEL-5 melanoma was more than 10 µM in each case. The TGI with SK-OV-3 ovarian, with U251 CNS and in the assay with UACC-257 melanoma was more than 10 µM throughout.
As for `CC(C)N=C(N)NC#N`, the TGI in the assay on EKVX NSCLC, in the assay on HCT-15 colon, with NCI-H522 lung, with OVCAR-8 ovarian, in the assay on SK-OV-3 ovarian and with UACC-257 melanoma was more than 100 µM throughout.
Turning to `O=C(Nc1ccc2[nH]c(C(=O)N3CC(CCl)c4c3cc([N+](=O)[O-])c3ccccc43)cc2c1)Nc1ccc2[nH]c(C(=O)N3CC(CCl)c4c3cc([N+](=O)[O-])c3ccccc43)cc2c1` (stereo unspecified), the TGI in the assay with 786-0 renal, with EKVX NSCLC, in the assay on HCT-15 colon, with MDA-MB-231 breast, in the assay on NCI-H522 lung and in the assay on SK-MEL-5 melanoma was more than 100 µM each time. In addition, the TGI with SK-OV-3 ovarian, in the assay with U251 CNS and with UACC-257 melanoma was more than 100 µM each time.
In the case of `O=c1ccn(COC(COCc2ccccc2)COCc2ccccc2)c(=O)[nH]1`, the TGI in the assay with HCT-15 colon, in the assay with MDA-MB-231 breast, in the assay on OVCAR-8 ovarian, in the assay on RXF 393 renal, with SK-MEL-5 melanoma and in the assay on SK-OV-3 ovarian was more than 100 µM each time. The TGI in the assay on U251 CNS and in the assay with UACC-257 melanoma was more than 100 µM throughout.
On to `COC1CC(COCc2ccccc2)CC(OC)O1` (stereo unspecified), for which the TGI in the assay on 786-0 renal, in the assay on EKVX NSCLC, in the assay on HCT-15 colon, in the assay with NCI-H522 lung, in the assay on OVCAR-8 ovarian and in the assay on RXF 393 renal was more than 100 µM throughout. Also, the TGI with SK-MEL-5 melanoma, with SK-OV-3 ovarian and with UACC-257 melanoma was more than 100 µM in each case.
With `O=C(CN1CCOCC1)c1ccc2c(c1)oc(=O)n2CCN1CCOCC1`, the TGI in the assay on 786-0 renal, with EKVX NSCLC, in the assay with MDA-MB-231 breast, in the assay with OVCAR-8 ovarian, with RXF 393 renal and with SK-MEL-5 melanoma was more than 100 µM throughout. Besides, the TGI with SK-OV-3 ovarian and in the assay on U251 CNS was more than 100 µM each time.
Turning to `COC(=O)c1ccc(N=NN(C)COc2ccc(Br)cc2)cc1`, the TGI in the assay on EKVX NSCLC, with HCT-15 colon, in the assay on NCI-H522 lung, with OVCAR-8 ovarian, in the assay on RXF 393 renal and with SK-MEL-5 melanoma was more than 100 µM each time. Besides, the TGI in the assay with SK-OV-3 ovarian, in the assay with U251 CNS and in the assay with UACC-257 melanoma was more than 100 µM throughout.
As to `Cc1cc(/C=C/c2cc[n+](C)c3ccccc23)c(O)c2ncccc12`, the TGI in the assay with 786-0 renal was 14.3 µM; with EKVX NSCLC, 20 µM; in the assay with HCT-15 colon it was 49.8 µM; in the assay on NCI-H522 lung, 11.6 µM; in the assay on OVCAR-8 ovarian, 16.1 µM; in the assay on RXF 393 renal it was 9.83 µM. Further, the TGI turned out to be 4.98 µM in the assay on SK-MEL-5 melanoma, 13 µM with SK-OV-3 ovarian, 13.5 µM in the assay with U251 CNS and 13.5 µM in the assay on UACC-257 melanoma.
With `Cc1ccc(O)c(C2=CC(c3cccc(Cl)c3)SC(N)=N2)c1` (stereo unspecified), the TGI in the assay with 786-0 renal is more than 100 µM; in the assay on EKVX NSCLC it was 61.8 µM; in the assay on HCT-15 colon, 38.2 µM; with NCI-H522 lung it was 34 µM; with OVCAR-8 ovarian, more than 100 µM; with RXF 393 renal it was 63.6 µM. Moreover, the TGI in the assay on SK-MEL-5 melanoma worked out at 30.1 µM; with SK-OV-3 ovarian it was 80 µM; with U251 CNS, 34.4 µM; with UACC-257 melanoma, 46.8 µM.

The values above are taken from PubChem BioAssay (NCI).
